Source: patent US10251394B2, “Molecules having pesticidal utility, and intermediates, compositions, and processes, related thereto” (Dow AgroSciences LLC, priority 2016, dated 2019)

Key:
[1] = system: Cabbage Looper (Trichoplusia ni); test: Bioassay on Cabbage Looper (CL), 128-well diet tray assay; format: in vivo; settings: Cabbage Looper, Table ABC, read-out: CL rating
In short: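 Second-instar larvae, one to five per well, placed on artificial diet surface-treated with 50 μg/cm^2 compound in acetone-water, eight wells per compound. Held 5-7 days at 25° C, 14:10 light-dark; percent mortality per well averaged across wells.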

[2] = system: Beet Armyworm (Spodoptera exigua); test: Bioassay on Beet Armyworm (BAW), 128-well diet tray assay; format: in vivo; settings: Beet Armyworm, Table ABC, read-out: BAW rating
In short: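 Second-instar larvae (one to five per well) placed on artificial diet surface-treated with 50 μg/cm^2 test molecule in 90:10 acetone-water, dried, eight wells per molecule. Held at 25° C, 14:10 light-dark, five to seven days; percent mortality recorded per well and averaged across the eight wells.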

| SMILES | pest or weed control at 50 µg/cm2 [1] | pest or weed control at 50 µg/cm2 [2] |
| --- | --- | --- |
| C[C@@H](NC(=O)c1ccc(/C(F)=C/C(c2cc(Cl)c(Cl)c(Cl)c2)C(F)(F)F)cc1C(F)(F)F)C(=O)/C=C/CC(F)(F)F (some centres unmarked) [F140] | 50 to 100% | 50 to 100% |
| C=C(C)c1c(Cl)cc(C(/C=C(\F)c2ccc(C(=O)N[C@H](C)C(=O)NCC(F)(F)F)c(C(F)(F)F)c2)C(F)(F)F)cc1Cl (stereo partly drawn) [F148, 4-((Z)-3-(3,5-Dichloro-4-(prop-1-en-2-yl)phenyl)-1,4,4,4-tetrafluorobut-1-en-1-yl)-N—((R)-1-oxo-1-((2,2,2-trifluoroethyl)amino)propan-2-yl)-2-(trifluoromethyl)benzamide] | 50 to 100% | 50 to 100% |
| O=C(N[C@@H]1CON(CC(F)(F)F)C1=O)c1ccc(/C(F)=C/C(c2ccc(F)c(C(F)(F)F)c2)C(F)(F)F)cc1C(F)(F)F (stereo partly drawn) [F150, N—((R)-3-Oxo-2-(2,2,2-trifluoroethyl)isoxazolidin-4-yl)-4-((2)-1,4,4,4-tetrafluoro-3-(4-fluoro-3-(trifluoromethyl)phenyl)but-1-en-1-yl)-2-(trifluoromethyl)benzamide] | 50 to 100% | 50 to 100% |
| C[C@@H](NC(=O)c1ccc(/C(F)=C/C(c2cc(F)c(F)c(Cl)c2)C(F)(F)F)cc1C(F)(F)F)C(=O)NCC(F)(F)F (stereo partly drawn) [F154, 4-((Z)-3-(3-Chloro-4,5-difluorophenyl)-1,4,4,4-tetrafluorobut-1-en-1-yl)-N—((R)-1-oxo-1-((2,2,2-trifluoroethyl)amino)propan-2-yl)-2-(trifluoromethyl)benzamide] | 50 to 100% | 50 to 100% |
| COc1ccc(C(/C=C(\F)c2ccc(C(=O)NCC(=O)NCC(F)(F)F)c(C(F)(F)F)c2)C(F)(F)F)cc1Cl (centres unmarked) [F158, (Z)-4-(3-(3-Chloro-4-methoxyphenyl)-1,4,4,4-tetrafluorobut-1-en-1-yl)-N-(2-oxo-2-((2,2,2-trifluoroethyl)amino)ethyl)-2-(trifluoromethyl)benzamide] | 50 to 100% | 50 to 100% |
| C[C@@H](NC(=O)c1ccc(/C(F)=C/C(c2ccc(OCC(F)(F)F)c(Cl)c2)C(F)(F)F)cc1C(F)(F)F)C(=O)NCC(F)(F)F (stereo partly drawn) [F162, 4-((Z)-3-(3-Chloro-4-(2,2,2-trifluoroethoxy)phenyl)-1,4,4,4-tetrafluorobut-1-en-1-yl)-N—((R)-1-oxo-1-((2,2,2-trifluoroethyl)amino)propan-2-yl)-2-(trifluoromethyl)benzamide] | 50 to 100% | 50 to 100% |
| COC(=O)CC(NC(=O)c1ccc(/C(F)=C/C(c2cc(Cl)c(Cl)c(Cl)c2)C(F)(F)F)cc1C(F)(F)F)C(F)(F)F (centres unmarked) [F166, Methyl (Z)-4,4,4-trifluoro-3-(4-(1,4,4,4-tetrafluoro-3-(3,4,5-trichlorophenyl)but-1-en-1-yl)-2-(trifluoromethyl)benzamido)butanoate] | 50 to 100% | 50 to 100% |
| C[C@@H](NC(=O)c1ccc(/C(F)=C/C(c2cc(Cl)c(Cl)c(Cl)c2)C(F)(F)F)cc1C(F)(F)F)C(=O)NC1CC(F)(F)C1 (stereo partly drawn) [F168, N—((R)-1-((3,3-difluorocyclobutyl)amino)-1-oxopropan-2-yl)-4-((Z)-1,4,4,4-tetrafluoro-3-(3,4,5-trichlorophenyl)but-1-en-1-yl)-2-(trifluoromethyl)benzamide] | 50 to 100% | 50 to 100% |
| C[C@@H](NC(=O)c1ccc(/C(F)=C/C(c2cc(Cl)c(Cl)c(Cl)c2)C(F)(F)F)cc1C(F)(F)F)C(=O)N(O)CC(F)(F)F (stereo partly drawn) [F169, N—((R)-1-(Hydroxy(2,2,2-trifluoroethyl)amino)-1-oxopropan-2-yl)-4-((Z)-1,4,4,4-tetrafluoro-3-(3,4,5-trichlorophenyl)but-1-en-1-yl)-2-(trifluoromethyl)benzamide] | 50 to 100% | 50 to 100% |
| C[C@@H](NC(=O)c1ccc(/C(F)=C/C(c2ccc(Br)c(F)c2)C(F)(F)F)cc1C(F)(F)F)C(=O)NCC(F)(F)F (stereo partly drawn) [F170, 4-((Z)-3-(4-Bromo-3-fluorophenyl)-1,4,4,4-tetrafluorobut-1-en-1-yl)-N—((R)-1-oxo-1-((2,2,2-trifluoroethyl)amino)propan-2-yl)-2-(trifluoromethyl)benzamide] | 50 to 100% | 50 to 100% |
| O=C(N[C@@H]1CCN(CC(F)(F)F)C1=O)c1ccc(/C(F)=C/C(c2cc(Cl)c(Cl)c(Cl)c2)C(F)(F)F)cc1C(F)(F)F (stereo partly drawn) [F171, N—((R)-2-Oxo-1-(2,2,2-trifluoroethyl)pyrrolidin-3-yl)-4-((Z)-1,4,4,4-tetrafluoro-3-(3,4,5-trichlorophenyl)but-1-en-1-yl)-2-(trifluoromethyl)benzamide] | 50 to 100% | 50 to 100% |
| CNC(=O)[C@@H](C)NC(=O)c1ccc(/C(F)=C/C(c2cc(Cl)c(Cl)c(Cl)c2)C(F)(F)F)cc1C(F)(F)F (stereo partly drawn) [F173, N—((R)-1-(Methylamino)-1-oxopropan-2-yl)-4-((Z)-1,4,4,4-tetrafluoro-3-(3,4,5-trichlorophenyl)but-1-en-1-yl)-2-(trifluoromethyl)benzamide] | 50 to 100% | 50 to 100% |
| CCC(F)(F)C(/C=C(\F)c1ccc(C(=O)N[C@H](C)C(=O)NCC(F)(F)F)c(C(F)(F)F)c1)c1cc(Cl)c(Cl)c(Cl)c1 (stereo partly drawn) [F174, N—((R)-1-Oxo-1-((2,2,2-trifluoroethyl)amino)propan-2-yl)-4-((Z)-1,4,4-trifluoro-3-(3,4,5-trichlorophenyl)hex-1-en-1-yl)-2-(trifluoromethyl)benzamide] | 50 to 100% | 50 to 100% |
| C[C@@H](NC(=O)c1ccc(/C(F)=C/C(c2cc(Cl)cc(C(C)(F)F)c2)C(F)(F)F)cc1C(F)(F)F)C(=O)NCC(F)(F)F (stereo partly drawn) [F175, 4-((Z)-3-(3-Chloro-5-(1,1-difluoroethyl)phenyl)-1,4,4,4-tetrafluorobut-1-en-1-yl)-N—((R)-1-oxo-1-((2,2,2-trifluoroethyl)amino)propan-2-yl)-2-(trifluoromethyl)benzamide] | 50 to 100% | 50 to 100% |
| C[C@@H](NC(=O)c1ccc(/C(F)=C/C(c2cc(Cl)cc(CC(F)(F)F)c2)C(F)(F)F)cc1C(F)(F)F)C(=O)NCC(F)(F)F (stereo partly drawn) [F176, 4-((Z)-3-(3-Chloro-5-(2,2,2-trifluoroethyl)phenyl)-1,4,4,4-tetrafluorobut-1-en-1-yl)-N—((R)-1-oxo-1-((2,2,2-trifluoroethyl)amino)propan-2-yl)-2-(trifluoromethyl)benzamide] | 50 to 100% | 50 to 100% |
| O=C(N[C@@H]1CON(CC(F)(F)F)C1=O)c1ccc(/C(F)=C/C(c2cc(Cl)cc(CC(F)(F)F)c2)C(F)(F)F)cc1C(F)(F)F (stereo partly drawn) [F178, 4-((Z)-3-(3-Chloro-5-(2,2,2-trifluoroethyl)phenyl)-1,4,4,4-tetrafluorobut-1-en-1-yl)-N—((R)-3-oxo-2-(2,2,2-trifluoroethyl)isoxazolidin-4-yl)-2-(trifluoromethyl)benzamide] | 50 to 100% | 50 to 100% |
| C[C@@H](NC(=O)c1ccc(/C(F)=C/C(c2cc(Cl)cc(OC(F)(F)F)c2)C(F)(F)F)cc1C(F)(F)F)C(=O)NCC(F)(F)F (stereo partly drawn) [F181, 4-((Z)-3-(3-Chloro-5-(trifluoromethoxy)phenyl)-1,4,4,4-tetrafluorobut-1-en-1-yl)-N—((R)-1-oxo-1-((2,2,2-trifluoroethyl)amino)propan-2-yl)-2-(trifluoromethyl)benzamide] | 50 to 100% | 50 to 100% |
| C[C@@H](NC(=O)c1ccc(/C(F)=C/C(c2ccc(OC(F)(F)F)c(Cl)c2)C(F)(F)F)cc1C(F)(F)F)C(=O)NCC(F)(F)F (stereo partly drawn) [F182, 4-((Z)-3-(3-Chloro-4-(trifluoromethoxy)phenyl)-1,4,4,4-tetrafluorobut-1-en-1-yl)-N—((R)-1-oxo-1-((2,2,2-trifluoroethyl)amino)propan-2-yl)-2-(trifluoromethyl)benzamide] | 50 to 100% | 50 to 100% |
| C[C@@H](NC(=O)c1ccc(/C(F)=C/C(c2ccc(Cl)c(OC(F)(F)F)c2)C(F)(F)F)cc1C(F)(F)F)C(=O)NCC(F)(F)F (stereo partly drawn) [F183, 4-((Z)-3-(4-Chloro-3-(trifluoromethoxy)phenyl)-1,4,4,4-tetrafluorobut-1-en-1-yl)-N—((R)-1-oxo-1-((2,2,2-trifluoroethyl)amino)propan-2-yl)-2-(trifluoromethyl)benzamide] | 50 to 100% | 50 to 100% |
| C=Cc1cc(C(/C=C(\F)c2ccc(C(=O)N[C@H](C)C(=O)NCC(F)(F)F)c(C(F)(F)F)c2)C(F)(F)F)cc(C=C)c1Cl (stereo partly drawn) [F184, 4-((Z)-3-(4-Chloro-3,5-divinylphenyl)-1,4,4,4-tetrafluorobut-1-en-1-yl)-N—((R)-1-oxo-1-((2,2,2-trifluoroethyl)amino)propan-2-yl)-2-(trifluoromethyl)benzamide] | 50 to 100% | 50 to 100% |
| C[C@@H](NC(=O)c1ccc(/C(F)=C/C(c2cc(Cl)c(Cl)c(Br)c2)C(F)(F)F)cc1C(F)(F)F)C(=O)NCC(F)(F)F (stereo partly drawn) [F185, 4-((Z)-3-(3-Bromo-4,5-dichlorophenyl)-1,4,4,4-tetrafluorobut-1-en-1-yl)-N—((R)-1-oxo-1-((2,2,2-trifluoroethyl)amino)propan-2-yl)-2-(trifluoromethyl)benzamide] | 50 to 100% | 50 to 100% |
| C=Cc1cc(C(/C=C(\F)c2ccc(C(=O)N[C@H](C)C(=O)NCC(F)(F)F)c(C(F)(F)F)c2)C(F)(F)F)cc(Cl)c1Cl (stereo partly drawn) [F186, 4-((Z)-3-(3,4-dichloro-5-vinylphenyl)-1,4,4,4-tetrafluorobut-1-en-1-yl)-N—((R)-1-oxo-1-((2,2,2-trifluoroethyl)amino)propan-2-yl)-2-(trifluoromethyl)benzamide] | 50 to 100% | 50 to 100% |
